Results as given in publication PMC4686731, “Screening of Pharmacologically Active Small Molecule Compounds Identifies Antifungal Agents Against Candida Biofilms” (Frontiers in Microbiology, 2015).
≈ marks a conversion by molar mass, not a printed value. Like-named read-outs stand apart in the source and are kept apart here.

Assays:
Type in all cases: cell-based
[1] = test system: C. albicans SC5314 biofilm; experiment: AST, biofilm mode; conditions: Candida albicans, read-out: Minimum inhibitory concentration (MIC)
Experimental: (§1) The in vitro susceptibility of well-characterized wild-type C. albicans strain SC5314, which was provided by Prof. N.A.R. Gow (University of Aberdeen, Aberdeen, UK) was tested against 1280 compounds from the Library of Pharmacologically Active Compounds (LOPAC^1280TM, Sigma–Aldrich, USA). The screen was performed with C. albicans SC5314, and hits were further confirmed with the type strains C. dubliniensis MYA 577, C. glabrata ATCC 2001, C. kusei ATCC 6258, C. palapsilosis ATCC 22019, and C. tropicalis ATCC13803.
(§2) To investigate the antifungal effects of the hit compounds, ASTs were conducted using broth microdilution assays with high cell densities of the planktonic mode, adhesion phase and biofilm mode against Candida strains (C. albicans, C. dubliniensis, C. glabrata, C. kusei, C. palapsilosis, and C. tropicalis). First, high density cell (1 × 10^7 cells/mL) suspensions were added to the RPMI medium containing each hit compound (10–1000 μM) in 96-well plates and incubated at 37°C for 24 h. Next, the 50% minimum inhibitory concentrations (MICs) of high-density Candida planktonic cultures were determined using the CellTiter-Glo luminescent cell viability kit, as described above. The antifungal effects of the hit compounds were also evaluated in the adhesion phase and the biofilm mode, in the same manner as the planktonic mode. Candida biofilms were produced as described previously ([Jin et al., 2004]). In brief, Candida cells were grown on SDA at 37°C for 18 h. A loopful of the yeast culture was then inoculated into yeast nitrogen base (YNB) (Difco, USA) medium supplemented with 50 mM glucose. After overnight broth culture in a rotary shaker at 75 rpm, the cells were washed twice with 20 mL of PBS (pH 7.2, 0.1 M). The yeast cells were re-suspended in YNB supplemented with 100 mM glucose and adjusted to an optical density of 0.38 (1 × 10^7 cells/mL) at 520 nm. This standardized cell suspension was used immediately to form biofilms in the wells of 96-well polystyrene culture plates (Iwaki, Tokyo, Japan). First, the cells were incubated for 90 min at 37°C in a shaker at 75 rpm to allow yeast adherence to the well surface (adhesion phase), before the medium was aspirated and each well was washed once with PBS to remove non-adherent cells. YNB containing 100 mM glucose was then pipetted into each well and the plate was incubated at 37°C in a shaker at 75 rpm for 24 h. Non-adherent cells were removed by pipetting and the biofilms were washed twice with PBS. Following this biofilm growth phase, microscopic examination of the cultures was performed to exclude contamination. These ASTs were repeated on three different occasions.

[2] = test system: C. dubliniensis MYA 577 biofilm; experiment: AST, biofilm mode; conditions: Candida dubliniensis, MYA577BIOFILM, read-out: Minimum inhibitory concentration (MIC)
Experimental: as §1, §2

Candida biofilms = experiment: AST, biofilm mode, all Candida strains; conditions: all six strains
Experimental: as §1, §2

[3] = SC5314, biofilm mode (24 h biofilm)

For Cc1ccc(S(=O)(=O)/C=C/C#N)cc1 [Bay11-7082], the MIC [1, 3] was 31.3 µM (≈ 6.49 µg/mL), the MIC ([2]; biofilm mode (24 h biofilm)) was 31.3 µM (≈ 6.49 µg/mL) and the “concentration that inhibited the metabolic activity of Candida biofilms” value (Candida biofilms; listed as BAY11-7082) was “below 500 μM”. The “concentration that inhibited the metabolic activity of Candida biofilms” value (Candida biofilms; listed as Bay 11-7082) was less than 62.5 µM.

CC(C)(C)c1ccc(S(=O)(=O)/C=C/C#N)cc1 [Bay11-7085] was tested, and the MIC [1, 3] was 31.3 µM (≈ 7.8 µg/mL), the MIC ([2]; biofilm mode (24 h biofilm)) was 62.5 µM (≈ 15.6 µg/mL) and the “concentration that inhibited the metabolic activity of Candida biofilms” value (Candida biofilms; listed as BAY11-7085) was “below 500 μM”. For the same compound, the “concentration that inhibited the metabolic activity of Candida biofilms” value (Candida biofilms; listed as Bay 11-7085) was less than 62.5 µM.

With Cc1c2ccncc2c(C)c2c1[nH]c1ccccc12 [Ellipticine] the MIC [1, 3] was 125 µM (≈ 30.8 µg/mL), the MIC ([2]; biofilm mode (24 h biofilm)) was 500 µM (≈ 123 µg/mL) and the “concentration that inhibited the metabolic activity of Candida biofilms” value (Candida biofilms) was less than 500 µM.

With C[n+]1cc2c3c(ccc2c2ccc4cc5c(cc4c21)OCO5)OCO3 [Sanguinarine, Sanguinarine chloride hydrate] the MIC ([1]; SC5314, 24 h) was 15.6 µM, the MIC ([2]; 24 h) was 15.6 µM and the “concentration that inhibited the metabolic activity of Candida biofilms” value (Candida biofilms; listed as Sanguinarine chloride hydrate) was less than 31.3 µM. The “concentration that inhibited the metabolic activity of Candida biofilms” value (Candida biofilms; listed as sanguinarine chloride hydrate) was “below 500 μM”.
